In the CheMixHub viscosity set:

Assay: xn = mol fraction of the nth substance listed

CCCCN + ClC(Cl)Cl
viscosity [mPa·s], 101 kPa
Details | 293.15 K | 298.15 K | 303.15 K | 308.15 K
x1 = 0.0601 | 0.59 | 0.555 | 0.529 | 0.516
x1 = 0.1276 | 0.603 | 0.567 | 0.535 | 0.525
x1 = 0.1585 | 0.61 | 0.571 | – | 0.529
x1 = 0.2301 | 0.623 | 0.583 | 0.554 | 0.535
x1 = 0.2658 | 0.631 | 0.587 | 0.558 | 0.538
x1 = 0.336 | 0.641 | 0.598 | – | 0.541
x1 = 0.4049 | 0.647 | 0.6 | 0.567 | 0.543
x1 = 0.4341 | 0.649 | 0.599 | 0.568 | 0.541
x1 = 0.4542 | 0.649 | 0.6 | – | 0.54
x1 = 0.4991 | 0.645 | 0.598 | 0.561 | 0.536
x1 = 0.6045 | 0.63 | 0.585 | 0.548 | 0.524
x1 = 0.6156 | 0.627 | 0.58 | – | 0.52
x1 = 0.6443 | 0.621 | 0.573 | 0.54 | 0.516
x1 = 0.7093 | 0.604 | 0.559 | 0.526 | 0.503
x1 = 0.7325 | 0.596 | 0.552 | 0.52 | 0.496
x1 = 0.8611 | 0.556 | 0.514 | 0.487 | 0.46
x1 = 0.9302 | 0.532 | 0.492 | 0.463 | 0.437

O=C(O)C(Cl)(Cl)Cl + Oc1ccccc1
323.15 K, 101 kPa
Details | viscosity [mPa·s]
x2 = 0.1005 | 5.083
x2 = 0.1834 | 5.115
x2 = 0.245 | 5.126
x2 = 0.3305 | 5.085
x2 = 0.4032 | 5.012
x2 = 0.5025 | 4.779
x2 = 0.5925 | 4.683
x2 = 0.6928 | 4.342
x2 = 0.76 | 4.127
x2 = 0.8544 | 3.811
x2 = 0.9117 | 3.569

CCCC(=O)OCC + CCCCCCC
viscosity [mPa·s], 101.3 kPa
Details | 308.15 K | 318.15 K
x1 = 0.0502 | 0.356 | 0.325
x1 = 0.1025 | 0.36 | 0.33
x1 = 0.2204 | 0.373 | 0.344
x1 = 0.2988 | 0.383 | 0.354
x1 = 0.3991 | 0.398 | 0.371
x1 = 0.5188 | 0.421 | 0.393
x1 = 0.6073 | 0.442 | 0.415
x1 = 0.6954 | 0.467 | 0.436
x1 = 0.8003 | 0.499 | 0.469
x1 = 0.9011 | 0.544 | 0.518
x1 = 0.9513 | 0.57 | 0.539

Cc1ccncc1 + CC(C)O
298.15 K, 101.33 kPa
Details | viscosity [mPa·s]
x2 = 0.0886 | 0.8731
x2 = 0.1711 | 0.8916
x2 = 0.2569 | 0.9174
x2 = 0.4424 | 0.9998
x2 = 0.5207 | 1.048
x2 = 0.6685 | 1.181
x2 = 0.8095 | 1.405
x2 = 0.8831 | 1.599

CCCCN + CCC(=O)O
viscosity [mPa·s], 101 kPa
Details | x2 = 0.2 | x2 = 0.3 | x2 = 0.4 | x2 = 0.5 | x2 = 0.6 | x2 = 0.7 | x2 = 0.75 | x2 = 0.8 | x2 = 0.875
293.15 K | 1.82 | 15.13 | 63.74 | 0.5662 | 178 | 54.56 | 30.14 | 18.72 | 5.08
298.15 K | 1.75 | 12.72 | 51.68 | 0.4002 | 137.5 | 43.2 | 25.03 | 15.68 | 4.48
303.15 K | 1.63 | 10.92 | 41.89 | – | 107.7 | 35.21 | 20.17 | 13 | 4.05
308.15 K | 1.56 | 9.48 | 34.98 | – | 85.1 | 29.21 | 17.49 | 11.15 | 3.57
313.15 K | 1.44 | 8.34 | 29.06 | 176.5 | 71.2 | 24.51 | 15.02 | – | 3.09
313.5 K | – | – | – | – | – | – | – | 9.51 | –
318.15 K | 1.41 | 7.31 | 24.58 | 136.6 | 57.9 | 20.64 | 12.59 | 8.34 | 2.86
323.15 K | – | 6.66 | 21.02 | 112.7 | 47.7 | 17.83 | 11.15 | 7.33 | 2.73

CN + CS(C)=O
303.15 K, 101 kPa
Details | viscosity [mPa·s]
x2 = 0.0607 | 1.738
x2 = 0.12 | 1.823
x2 = 0.2348 | 1.891
x2 = 0.4501 | 2.172
x2 = 0.6481 | 2.077
x2 = 0.8308 | 1.895

CCCCN + Cc1ccc(C)cc1
303.15 K, 101 kPa
Details | viscosity [mPa·s]
x1 = 0.0795 | 0.545
x1 = 0.1507 | 0.53
x1 = 0.2545 | 0.511
x1 = 0.3628 | 0.494
x1 = 0.4612 | 0.481
x1 = 0.5562 | 0.471
x1 = 0.6469 | 0.464
x1 = 0.7338 | 0.457
x1 = 0.8144 | 0.451
x1 = 0.8979 | 0.448
x1 = 0.9456 | 0.444
